Reference: patent US9718803B2 (AMGEN INC., priority 2010, dated 2017)
Like-named read-outs stand apart in the source and are kept apart here.

Biological target: PDE10 enzyme
Test: MPDE10A7 enzyme activity and inhibition (IMAP TR-FRET assay)
Assay type: biochemical
Protocol: MPDE10A7 Enzyme Activity and Inhibition
Enzyme Activity. An IMAP TR-FRET assay was used to analyze the enzyme activity (Molecular Devices Corp., Sunnyvale Calif.). 5 L of serial diluted PDE10A (BPS Bioscience, San Diego, Calif.) or tissue homogenate was incubated with equal volumes of diluted fluorescein labeled cAMP or cGMP for 60 min in 384-well polystyrene assay plates (Corning, Corning, N.Y.) at room temperature. After incubation, the reaction was stopped by adding 60 L of diluted binding reagents and was incubated for 3 hours to overnight at room temperature. The plates were read on an Envision (Perkin Elmer, Waltham, Mass.) for time resolved fluorescence resonance energy transfer. The data were analyzed with GraphPad Prism (La Jolla, Calif.).
Enzyme Inhibition. To check the inhibition profile, 5 μL of serial diluted compounds were incubated with 5 μL of diluted PDE10 enzyme (BPS Bioscience, San Diego, Calif.) or tissue homogenate in a 384-well polystyrene assay plate (Corning, Corning, N.Y.) for 30 min at room temperature. […] The reaction was stopped by adding 60 μL of diluted binding reagents and plates were read on an Envision (Perkin Elmer, Waltham, Mass.) for time resolved fluorescence resonance energy transfer. The data were analyzed with GraphPad Prism (La Jolla, Calif.).

Structure (SMILES)	IC50 (read-out: IC50)	IC50 (running text of examples, fluorescein labeled cAMP or cGMP substrate, read-out: PDE10 IC50)
N#Cc1ccc(-c2nccnc2C2CN(c3ccc4ccccc4n3)C2)cc1 [Example 5.8, 4-(3-(1-(quinolin-2-yl)azetidin-3-yl)pyrazin-2-yl)benzonitrile]	3 nM	
O=C(O)c1cccc(-c2nccnc2C2CN(c3ccc4ccccc4n3)C2)c1 [Example 33.1, Lithium 3-(3-(1-(Quinolin-2-Yl)Azetidin-3-Yl)Pyrazin-2-Yl)Benzoate]		1.6 nM
